According to patent US6355799B1, “Substituted benzene compounds, process for their preparation, and herbicidal and defoliant compositions containing them” (ISK Americas Incorporated, priority 1997, dated 2002):

Assays:
Type in all cases: in vivo
[1] = test system: redroot pigweed (Amaranthus retroflexus, AMARE); assay: Pre-emerge test, greenhouse herbicide activity screening; details: phytotoxicity rating 0-100, 14 days after application
Summary of the method: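 Visual ratings on a 0-100 scale (0 no damage, 100 all plants dead) were taken at 14 days after treatment. Rates of 15-1000 g ai/ha in acetone, 187 l/ha, were sprayed onto soil one day after planting (pre-emerge) or onto 2-3 leaf plants with 0.25% v/v surfactant (post-emerge).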

[2] = test system: barnyardgrass (Echinochloa crus-galli, ECHCG); assay: as above; details: phytotoxicity rating 0-100, 14 days after application
Summary of the method: (§1)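 Compounds in acetone were track-sprayed at 15–1000 g ai/ha: pre-emergence onto soil sown the previous day, then top-watered to incorporate and later bottom-watered; post-emergence onto 2–3 leaf plants with 0.25% v/v surfactant, bottom-watered only. Ratings on a 0–100 phytotoxicity scale were taken at day 14.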

[3] = test system: common ragweed (Ambrosia artemisizfolia L., AMBEL); assay: as above; details: phytotoxicity rating 0-100, 14 days after application
Summary of the method: as §1

[4] = test system: green foxtail (Setaria viridis, SETVI); assay: as above; details: phytotoxicity rating 0-100, 14 days after application
Summary of the method: as §1

[5] = test system: ivyleaf morningglory (Ipomoea hederacea, IPOHE); assay: as above; details: phytotoxicity rating 0-100, 14 days after application
Summary of the method: as §1

[6] = test system: johnsongrass (Sorghum halepense, SORHA); assay: as above; details: phytotoxicity rating 0-100, 14 days after application
Summary of the method: as §1

[7] = test system: lambsquarters (Chenopodium album, CHEAL); assay: as above; details: phytotoxicity rating 0-100, 14 days after application
Summary of the method: as §1

[8] = test system: large crabgrass (Digitaria sanguinalis, DIGSA); assay: as above; details: phytotoxicity rating 0-100, 14 days after application
Summary of the method: as §1

[9] = test system: sicklepod (Cassia obtusifolia, CASOB); assay: as above; details: phytotoxicity rating 0-100, 14 days after application
Summary of the method: as §1

[10] = test system: velvetleaf (Abutilon theophrasti, ABUTH); assay: as above; details: phytotoxicity rating 0-100, 14 days after application
Summary of the method: as §1

[11] = test system: field corn (Zea mays L., var. Dekalb 535, CORN); assay: Pre-emerge test, crop safety; details: crop damage rating 0-100, 14 days after application
Summary of the method: (§2)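 Rating: 0–100 visual injury, 14 DAA. Application: acetone, 187 l/ha, 15–1000 g ai/ha, flat-fan track sprayer with nozzle 40–45 cm above soil or canopy. Post-emerge runs used 0.25% v/v surfactant on 2–3 leaf plants.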

[12] = test system: upland rice (Oryza sp., var. Tebonnet, RICE); assay: Pre-emerge test, crop safety; details: crop damage rating 0-100, 14 days after application
Summary of the method: as §2

[13] = test system: barnyardgrass (Echinochloa crus-galli, ECHCG); assay: Post-emerge test, greenhouse herbicide activity screening; details: post-emerge, 14 days after application, rating scale 0-100
Summary of the method: (§3)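 Applied at 15–1000 g ai/ha from acetone in 187 l/ha spray volume. Post-emergence applications included 0.25% v/v non-ionic surfactant and reached plants sown 8–21 days before. Pre-emergence applications were incorporated by surface watering. Efficacy or crop damage was rated on a 0–100 scale after 14 days.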

[14] = test system: common ragweed (Ambrosia artemisizfolia L., AMBEL); assay: as above; details: post-emerge, 14 days after application, rating scale 0-100
Summary of the method: as §3

[15] = test system: green foxtail (Setaria viridis, SETVI); assay: as above; details: post-emerge, 14 days after application, rating scale 0-100
Summary of the method: as §3

[16] = test system: ivyleaf morningglory (Ipomoea hederacea, IPOHE); assay: as above; details: post-emerge, 14 days after application, rating scale 0-100
Summary of the method: as §3

[17] = test system: johnsongrass (Sorghum halepense, SORHA); assay: as above; details: post-emerge, 14 days after application, rating scale 0-100
Summary of the method: as §3

[18] = test system: lambsquarters (Chenopodium album, CHEAL); assay: as above; details: post-emerge, 14 days after application, rating scale 0-100
Summary of the method: as §3

[19] = test system: large crabgrass (Digitaria sanguinalis, DIGSA); assay: as above; details: post-emerge, 14 days after application, rating scale 0-100
Summary of the method: as §3

[20] = test system: redroot pigweed (Amaranthus retroflexus, AMARE); assay: as above; details: post-emerge, 14 days after application
Summary of the method: as §3

[21] = test system: sicklepod (Cassia obtusifolia, CASOB); assay: as above; details: post-emerge, 14 days after application, rating scale 0-100
Summary of the method: as §3

[22] = test system: velvetleaf (Abutilon theophrasti, ABUTH); assay: as above; details: post-emerge, 14 days after application, rating scale 0-100
Summary of the method: as §3

[23] = test system: field corn (Zea mays L., var. Dekalb 535, CORN); assay: Post-emerge test, crop safety; details: post-emerge, 14 days after application, rating scale 0-100
Summary of the method: as §2

[24] = test system: upland rice (Oryza sp., var. Tebonnet, RICE); assay: Post-emerge test, crop safety; details: post-emerge, 14 days after application, rating scale 0-100
Summary of the method: as §2

COC(=O)N(C(=O)OC)c1c(OC)c(Cl)cc(F)c1-n1c(=O)cc(C(F)(F)F)n(C)c1=O [4-2]
100: Pre-emerge Herbicidal Activity AMARE ([1]; 63 g ai/ha) | Pre-emerge Herbicidal Activity AMARE ([1]; 250 g ai/ha) | Pre-emerge Herbicidal Activity AMBEL ([3]; 250 g ai/ha) | Pre-emerge Herbicidal Activity SETVI ([4]; 250 g ai/ha) | Pre-emerge Herbicidal Activity IPOHE ([5]; 250 g ai/ha) | Pre-emerge Herbicidal Activity CHEAL ([7]; 63 g ai/ha) | Pre-emerge Herbicidal Activity CHEAL ([7]; 250 g ai/ha) | Pre-emerge Herbicidal Activity ABUTH ([10]; 63 g ai/ha) | Pre-emerge Herbicidal Activity ABUTH ([10]; 250 g ai/ha) | phytotoxicity rating IPOHE ([16]; 250 g ai/ha) | phytotoxicity rating ABUTH ([22]; 250 g ai/ha)
85: phytotoxicity rating AMARE ([20]; 250 g ai/ha, rating scale 0-100)
70: Pre-emerge Herbicidal Activity SETVI ([4]; 63 g ai/ha) | Pre-emerge Herbicidal Activity SORHA ([6]; 250 g ai/ha) | phytotoxicity rating IPOHE ([16]; 63 g ai/ha) | phytotoxicity rating ABUTH ([22]; 63 g ai/ha)
5: Pre-emerge Herbicidal Activity CORN ([11]; 250 g ai/ha)
80: Pre-emerge Herbicidal Activity ECHCG ([2]; 250 g ai/ha) | Pre-emerge Herbicidal Activity CASOB ([9]; 250 g ai/ha)
40: Pre-emerge Herbicidal Activity DIGSA ([8]; 63 g ai/ha) | phytotoxicity rating CHEAL ([18]; 63 g ai/ha) | phytotoxicity rating CASOB ([21]; 250 g ai/ha)
20: Pre-emerge Herbicidal Activity RICE ([12]; 250 g ai/ha) | phytotoxicity rating SETVI ([15]; 250 g ai/ha)
10: Pre-emerge Herbicidal Activity RICE ([12]; 63 g ai/ha) | phytotoxicity rating CORN (crop damage) ([23]; 250 g ai/ha)
0: Pre-emerge Herbicidal Activity ECHCG ([2]; 63 g ai/ha) | Pre-emerge Herbicidal Activity IPOHE ([5]; 63 g ai/ha) | Pre-emerge Herbicidal Activity SORHA ([6]; 63 g ai/ha) | Pre-emerge Herbicidal Activity CASOB ([9]; 63 g ai/ha) | Pre-emerge Herbicidal Activity CORN ([11]; 63 g ai/ha) | phytotoxicity rating ECHCG ([13]; 63 g ai/ha) | phytotoxicity rating ECHCG ([13]; 250 g ai/ha) | phytotoxicity rating AMBEL ([14]; 63 g ai/ha) | phytotoxicity rating SETVI ([15]; 63 g ai/ha) | phytotoxicity rating SORHA ([17]; 63 g ai/ha) | phytotoxicity rating SORHA ([17]; 250 g ai/ha) | phytotoxicity rating DIGSA ([19]; 63 g ai/ha) | phytotoxicity rating DIGSA ([19]; 250 g ai/ha) | phytotoxicity rating CASOB ([21]; 63 g ai/ha) | phytotoxicity rating CORN (crop damage) ([23]; 63 g ai/ha) | phytotoxicity rating RICE (crop damage) ([24]; 63 g ai/ha)
90: Pre-emerge Herbicidal Activity DIGSA ([8]; 250 g ai/ha)
95: phytotoxicity rating CHEAL ([18]; 250 g ai/ha)
30: Pre-emerge Herbicidal Activity AMBEL ([3]; 63 g ai/ha) | phytotoxicity rating AMBEL ([14]; 250 g ai/ha) | phytotoxicity rating RICE (crop damage) ([24]; 250 g ai/ha)
50: phytotoxicity rating AMARE ([20]; 63 g ai/ha, rating scale 0-100 (0 no damage, 100 complete death))
